Laboratory results published in patent publication US10004809B2, “Precise delivery of therapeutic agents to cell mitochondria for anti-cancer therapy” (UNIVERSITY OF GEORGIA RESEARCH FOUNDATION, INC., priority 2013, dated 2018).

How the values were obtained:
Assay type in all cases: cell-based, Human
[1] = tested on: DU145 cells; assay: MTT cytotoxicity assay; details: for IC50: MTT, 72 h incubation
Method: (§1) The cytotoxic behaviors of MITO-DCA, TPP-DCA, Na-DCA, and TPP-Tris-(OH)3 were evaluated using the MTT assay against PC3, DU145, LNCaP, and MSC cells. Cells (2000 cells/well for PC3, DU145, and MSC cells; 5000 cells/well for LNCaP) were seeded on a 96-well plate in 100 μL of desired medium and incubated for 24 h. The cells were treated with different DCA compounds and TPP-Tris-(OH)3 at varying concentrations and incubated for 72 h at 37° C. The cells were then treated with 20 μL of MTT (5 mg/mL in PBS) for 5 h. The medium was removed, the cells were lysed with 100 μL of DMSO, and the absorbance of the purple tormazan was recorded at 550 nm using a Bio-Tek Synergy HT microplate reader. Each well was performed in triplicate. All experiments were repeated three times. Cytotoxicity was expressed as mean percentage increase relative to the unexposed control±SD. Control values were set at 0% cytotoxicity or 100% cell viability. Cytotoxicity data (where appropriate) was fitted to a sigmoidal curve and a three parameters logistic model used to calculate the IC50, which is the concentration of chemotherapeutics causing 50% inhibition in comparison to untreated controls. The mean IC50 is the concentration of agent that reduces cell growth by 50% under the experimental conditions and is the average from at least three independent measurements that were reproducible and statistically significant. The IC50 values were reported at ±99% confidence intervals. This analysis was performed with GraphPad Prism (San Diego, U.S.A).

[2] = tested on: LNCaP cells; assay: MTT cytotoxicity assay; details: for IC50: MTT, 72 h incubation
Method: as §1

[3] = tested on: PC3 cells; assay: MTT cytotoxicity assay; details: for IC50: MTT, 72 h incubation
Method: as §1

[4] = tested on: MSC cells; assay: MTT cytotoxicity assay on normal cells; details: 72 h
Method: as §1

[5] = tested on: MSC cells; assay: Annexin V/PI apoptosis detection by flow cytometry
Method: In order to determine whether the enhanced activity of MITO-DCA upon targeting this compound to the mitochondria of cells was due to apoptosis rather than necrosis, an ALEXA FLUOR™ 488-Annexin-V and propidium iodide (PI) cell staining in PC3 and MSC cells was carried out and data were analyzed using flow cytometry (FIG. 4B). As controls, etoposide treated cells were used as early apoptosis population and H2O2 treated cells were marked as late apoptotic or necrotic population. […] There were no late apoptotic or necrotic cells observed with these compounds.
PC3 and MSC cells were seeded at a density of 1×10^6 cells/mL on each well of a six well plate and allowed to grow overnight. Cells were treated with 50 μM Na-DCA, 150 μM TPP-DCA, and 150 μM MITO-DCA for 12 h at 37° C. As positive controls, etoposide (100 μM, incubation time: 12 h) for apoptosis and H2O2 (1 mM, incubation time: 45 min) for necrosis were used. The cells were trypsinized, repeatedly washed, and centrifuged at 1,800 RPM for 3 min, and the supernatants were discarded. Cell density was determined and cells were resuspended in 1× annexin-binding buffer to ˜1×10^6 cells/mL preparing a sufficient volume to have 100 µL per assay. To 100 μL of cell suspension, 5 μL ALEXA FLUOR™ 488 annexin V and 1 µL 100 μg/mL PI working solution were added and incubated for 15 min at room temperature. After the incubation period, 400 μL 1× annexin-binding buffer was added to each sample, samples were gently mixed keeping the samples on ice and the samples were analyzed on the flow cytometer immediately.

[6] = tested on: PC3 cells; assay: Intracellular lactate determination; details: 6 h
Source text: Cytosolic metabolism of glucose to pyruvate occurs before its entry into mitochondria for oxidative phosphorylation. However, if not metabolized through oxidative phosphorylation as found in cancer, pyruvate gets converted by lactate dehydrogenase through glycolysis to lactate. Glycolysis in the absence of oxidative phosphorylation in cancer causes rise in lactate concentration. To test the ability of MITO-DCA to switch glucose metabolism from glycolysis to oxidative phosphorylation in cancer cells, intracellular lactate levels in glycolytic PC3 cells were measured and compared the value with those observed in less glycolytic LNCaP and normal MSC cells (FIG. 5A). To understand the importance of mitochondria targeting ligand and to explore the importance of a Tris platform to increase number of DCA molecule per targeting ligand, the parent drug Na-DCA and TPP-DCA were used as controls. Treatment of PC3 cells with 50 μM of MITO-DCA for 6 h reduced the intracellular lactate levels by 58±5%. […] Pronounced lactate concentration differences were observed between […] glycolytic PC3 and healthy MSC cells (FIG. 5A). […] None of the DCA compounds has any effect on the lactate levels in MSC cells (FIG. 5A).
PC3, LNCaP, and MSC cells were seeded at a density of 1×10^6 cells/mL on each well of a 12 well plate and allowed to grow overnight at 37° C. under 5% CO2. Cells were treated with 150 μM Na-DCA, 150 μM TPP-DCA, and 50 μM MITO-DCA for 6 h at 37° C. After 6 h, the media was removed and the cells were homogenized. The lysate was added to the enzyme and substrate working reagent mixture and incubated for 30 min. Lactate concentration was measured using Bio-Tek Synergy HT microplate reader at 450 nm and comparing to a standard curve.

[7] = tested on: PC3 cells; assay: CELLTITER-GLO luminescent intracellular ATP quantification; details: for Increase in intracellular ATP levels: 3 h; for ATP level and cell growth at high concentration: PC3 cells, 6 h
Method: A decrease in cancer cell lactate levels is expected to be associated with an increase in ATP production. Intracellular ATP levels in PC3, LNCaP, and MSC cells treated with MITO-DCA (20 μM), TPP-DCA (60 μM), and Na-DCA (60 μM) were measured.
PC3 or MSC cells were plated at a density of 10,000 cells per well in 96-well plates compatible with the luminometer used in 100 μL media. […] Control wells containing medium without cells were prepared to obtain a value for background luminescence. Plates were then equilibrated at room temperature for ˜30 min. A volume of CELLTITER-GLO™ reagent equal to the volume of cell culture medium present in each well was added, this mixtures were well mixed for 2 min using a shaker to induce cell lysis. The plates were allowed to incubate at room temperature for 10 min to stabilize luminescent signal. Luminescent was recorded using a plate reader. ATP quantification was carried out from a standard curve using ATP disodium salt hydrate.

O=C(CCCCC[P+](c1ccccc1)(c1ccccc1)c1ccccc1)NC(COC(=O)C(Cl)Cl)(COC(=O)C(Cl)Cl)COC(=O)C(Cl)Cl.[Br-] [MITO-DCA]
Activity relative to Na-DCA ([1]; DU145 cells, from IC50): three orders of magnitude more activity
IC50 [1]: 42 ± 2 µM
Activity relative to Na-DCA ([2]; LNCaP cells, from IC50): three orders of magnitude more activity
IC50 [2]: 30 ± 6 µM
IC50 [3]: 17 ± 1 µM
Activity relative to Na-DCA ([3]; PC3 cells, from IC50): three orders of magnitude more active
Toxicity in normal MSC cells [4]: did not show any toxic effects
Apoptosis (annexin V/PI) ([5]; 50 μM): did not undergo apoptosis
Reduction of intracellular lactate levels ([6]; 50 μM): 58±5%
Increase in intracellular ATP levels ([7]; 20 μM): ~44%
ATP level and cell growth at high concentration ([7]; 50 μM): ATP reduction and cell growth inhibition

O=C(OCCC[P+](c1ccccc1)(c1ccccc1)c1ccccc1)C(Cl)Cl.[Br-] [TPP-DCA]
Times less active than MITO-DCA ([1]; DU145 cells, from IC50): ~10 times
IC50 [1]: 468 ± 49 µM
Times less active than MITO-DCA ([2]; LNCaP cells, from IC50): ~10 times
IC50 [2]: 302 ± 37 µM
IC50 [3]: 68 ± 1 µM
Times less active than MITO-DCA ([3]; PC3 cells, from IC50): ~4 times
Toxicity in normal MSC cells [4]: did not show any toxic effects
Apoptosis (annexin V/PI) ([5]; 150 μM): did not undergo apoptosis
Reduction of intracellular lactate levels ([6]; 150 μM): 30±2%
Increase in intracellular ATP levels ([7]; 60 μM): did not show any significant increase
ATP level and cell growth at high concentration ([7]; 150 μM): ATP reduction and cell growth inhibition
